Results: paper PMC8129133, “Polymer-free corticosteroid dimer implants for controlled and sustained drug delivery” (Nature Communications, 2021)
Several values for one entry are separate records, joined by “and”; a condition that tells them apart may be missing. Identical values can stand only once.

Experiment: In vitro release
Format: physicochemical
Conditions: for 30G x 6 mm - Cumulative Dex Release / 23G x 6 mm - Cumulative Dex Release: single samples and AVG; for Dex Release: Fig 5h implants, 1.5 ml FBS; for Cumulative Dex (%) / Cumulative Dex-TEG (%) / Cumulative Dex-TEG-Dex (%): Fig 4d pellet
Method: Pellets for release studies. Crystalline drug dimers were weighed on a stainless steel coupon. In the case of blends with a second drug, the dimer and drug were mixed at the desired mass ratio with mortar and pestle prior to weighing. Samples were transferred to a heat press (Carver Laboratory Press). A PTFE mold containing an array of 1 mm diameter holes of 1 mm depth was placed on top of the melt, and pressure was applied for 2 min. Molded pellets were cooled to room temperature and punched out of the mold, yielding a pellet of 1 mm height × 1 mm diameter.
Release studies were carried out using different media, including PBS (pH 7.4, Gibco), 100% FBS (Sigma, F1051), 1% FBS in PBS pH 7.4, and 3.6% BSA (Sigma, A7906) in PBS (pH 7.4, Gibco). […] Samples were incubated in release medium at 37 °C under constant agitation on an orbital shaker at 115 rpm (VWR). At designated timepoints, sampling was performed by complete removal of medium and replenishment with fresh buffer. Sampling timepoints included 24 h and then every 3–4 days thereafter. For PBS release conditions, samples were analyzed directly. For samples with protein (100% FBS, 1% FBS, 3.6% BSA), protein was precipitated by addition of acetonitrile. Samples were vortexed and centrifuged to separate extracted drug from precipitated protein. The supernatant was then analyzed for drug concentration by HPLC.

SMILES: C[C@@H]1C[C@H]2[C@@H]3CCC4=CC(=O)C=C[C@]4(C)[C@@]3(F)[C@@H](O)C[C@]2(C)[C@@]1(O)C(=O)COC(=O)OCCOCCOCCOC(=O)OCC(=O)[C@@]1(O)[C@H](C)C[C@H]2[C@@H]3CCC4=CC(=O)C=C[C@]4(C)[C@@]3(F)[C@@H](O)C[C@@]21C [Dex-TEG-Dex]
- 30G x 6 mm - Cumulative Dex Release (Fig 4e, Day 24, mean): 14632.22 ng
- 23G x 6 mm - Cumulative Dex Release, % (Fig 4e, Day 28, AVG): 5.83%
- 30G x 6 mm - Cumulative Dex Release, % (Fig 4e, Day 28, AVG): 26.07%
- 23G x 6 mm - Cumulative Dex Release (Fig 4e, Day 28): 22513.24 ng and 19328.26 ng and 15619.66 ng and 21703.43 ng and 22527.37 ng and 19996.59 ng
- 30G x 6 mm - Cumulative Dex Release (Fig 4e, Day 28): 17080.41 ng and 16856.88 ng and 15635.65 ng and 15175.33 ng and 17376.10 ng
- 23G x 6 mm - Cumulative Dex Release (Fig 4e, Day 28, mean): 20281.43 ng
- 30G x 6 mm - Cumulative Dex Release (Fig 4e, Day 28, mean): 16424.87 ng
- Cumulative Dex Release (Fig 5e extruded rods, 4.4 ml PBS, Day 3, samples and avg): 1097.22 ng and 914.62 ng and 1001.18 ng
- Cumulative Dex Release (Fig 5e extruded rods, 4.4 ml PBS, Day 3, samples and avg, mean): 1004.34 ng
- Cumulative Dex Release (Fig 5e extruded rods, 4.4 ml PBS, Day 7, samples and avg): 2505.34 ng and 2182.65 ng and 1890.99 ng
- Cumulative Dex Release (Fig 5e extruded rods, 4.4 ml PBS, Day 7, samples and avg, mean): 2192.99 ng
- Cumulative Dex Release (Fig 5e extruded rods, 4.4 ml PBS, Day 10, samples and avg): 3527.54 ng and 3009.52 ng and 2686.37 ng
- Cumulative Dex Release (Fig 5e extruded rods, 4.4 ml PBS, Day 10, samples and avg, mean): 3074.48 ng
- Cumulative Dex Release (Fig 5e extruded rods, 4.4 ml PBS, Day 14, samples and avg): 4834.31 ng and 3361.72 ng and 3917.67 ng
- Cumulative Dex Release (Fig 5e extruded rods, 4.4 ml PBS, Day 14, samples and avg, mean): 4037.90 ng
- Cumulative Dex Release (%) (Fig 5e extruded rods, PBS, Day 3, avg): 5.68%
- Cumulative Dex Release (%) (Fig 5e extruded rods, PBS, Day 7, avg): 12.40%
- Cumulative Dex Release (%) (Fig 5e extruded rods, PBS, Day 10, avg): 17.39%
- Cumulative Dex Release (%) (Fig 5e extruded rods, PBS, Day 14, avg): 22.83%
- Cumulative Dex Release (Fig 5g pellet 1x1 mm, 2 ml FBS, Day 1, samples and avg): 7893.42 ng and 9312.84 ng and 6181.88 ng
- Cumulative Dex Release (Fig 5g pellet 1x1 mm, 2 ml FBS, Day 1, samples and avg, mean): 7796.05 ng
- Cumulative Dex Release (Fig 5g pellet 1x1 mm, 2 ml FBS, Day 4, samples and avg): 30339.61 ng and 45405.22 ng and 23002.55 ng
- Cumulative Dex Release (Fig 5g pellet 1x1 mm, 2 ml FBS, Day 4, samples and avg, mean): 32915.79 ng
- Cumulative Dex Release (Fig 5g pellet 1x1 mm, 2 ml FBS, Day 7, samples and avg (Dex-TEG-Dex)): 54914.64 ng and 66482.50 ng and 47540.80 ng
- Cumulative Dex Release (Fig 5g pellet 1x1 mm, 2 ml FBS, Day 7, samples and avg (Dex-TEG-Dex), mean): 56312.65 ng
- Cumulative Dex Release (Fig 5g pellet 1x1 mm, 2 ml FBS, Day 12, samples and avg): 107363.57 ng and 105953.49 ng and 95651.85 ng
- Cumulative Dex Release (Fig 5g pellet 1x1 mm, 2 ml FBS, Day 12, samples and avg, mean): 102989.64 ng
- Cumulative Dex Release (Fig 5g pellet 1x1 mm, 2 ml FBS, Day 14, samples and avg (Dex-TEG-Dex)): 134750.54 ng and 130454.95 ng and 117349.61 ng
- Cumulative Dex Release (Fig 5g pellet 1x1 mm, 2 ml FBS, Day 14, samples and avg (Dex-TEG-Dex), mean): 127518.37 ng
- Cumulative Dex Release (%) (Fig 5g pellet, FBS, Day 1, avg): 1.53%
- Cumulative Dex Release (%) (Fig 5g pellet, FBS, Day 4, avg): 6.45%
- Cumulative Dex Release (%) (Fig 5g pellet, FBS, Day 7, avg (Dex-TEG-Dex)): 11.03%
- Cumulative Dex Release (%) (Fig 5g pellet, FBS, Day 12, avg): 20.18%
- Cumulative Dex Release (%) (Fig 5g pellet, FBS, Day 14, avg (Dex-TEG-Dex)): 24.99%
- Dex Release (Surface Area 0.4 mm2): 4010.80 ng/day and 4214.70 ng/day and 4298.12 ng/day
- Dex Release (Surface Area 2.23 mm2): 36784.29 ng/day and 23408.43 ng/day and 28616.37 ng/day
- Dex Release (Surface Area 5.3 mm2): 79250.12 ng/day and 77804.43 ng/day and 51184.45 ng/day
- Cumulative Dex (%) (3.6% BSA, Day 1): 0.09%
- Cumulative Dex-TEG (%) (3.6% BSA, Day 1): 0.00388% and 0.000233% and 0.00% and 0.00648%
- Cumulative Dex-TEG-Dex (%) (3.6% BSA, Day 1): 0.27% and 0.25% and 0.32% and 0.24% and 0.26% and 0.273%
- Cumulative Dex (%) (3.6% BSA, Day 3): 0.26%
- Cumulative Dex-TEG (%) (3.6% BSA, Day 3): 0.0221% and 0.0216% and 0.0328% and 0.0218% and 0.0264% and 0.0252%
- Cumulative Dex-TEG-Dex (%) (3.6% BSA, Day 3): 0.51% and 0.48% and 0.61% and 0.44% and 0.4979%
- Cumulative Dex-TEG (%) (3.6% BSA, Day 7): 0.08% and 0.09% and 0.10% and 0.12%
- Cumulative Dex-TEG-Dex (%) (3.6% BSA, Day 7): 0.69% and 0.68% and 0.90% and 0.62% and 0.66% and 0.7212%
- Cumulative Dex (%) (3.6% BSA, Day 10): 1.32%
- Cumulative Dex-TEG (%) (3.6% BSA, Day 10): 0.18% and 0.14% and 0.15% and 0.16% and 0.20%
- Cumulative Dex-TEG-Dex (%) (3.6% BSA, Day 10): 0.89% and 1.18% and 0.82% and 0.87% and 0.9318%
- Cumulative Dex (%) (3.6% BSA, Day 14): 1.97%
- Cumulative Dex-TEG (%) (3.6% BSA, Day 14): 0.28% and 0.21% and 0.25% and 0.22%
- Cumulative Dex-TEG-Dex (%) (3.6% BSA, Day 14): 1.13% and 1.12% and 1.43% and 0.98% and 1.06% and 1.102%
- Cumulative Dex-TEG (%) (100% FBS, Day 1): 0.00%
- Cumulative Dex-TEG-Dex (%) (100% FBS, Day 1): 0.045% and 0.05% and 0.07%
- Cumulative Dex-TEG (%) (100% FBS, Day 3): 0.02% and 0.0246% and 0.00%
- Cumulative Dex-TEG-Dex (%) (100% FBS, Day 3): 0.11% and 0.16% and 0.18%
- Cumulative Dex-TEG (%) (100% FBS, Day 7): 0.06% and 0.0546% and 0.04%
- Cumulative Dex-TEG-Dex (%) (100% FBS, Day 7): 0.22% and 0.28% and 0.36%
- Cumulative Dex-TEG (%) (100% FBS, Day 10): 0.0647% and 0.0546% and 0.06%
- Cumulative Dex-TEG-Dex (%) (100% FBS, Day 10): 0.29% and 0.38% and 0.50%
- Cumulative Dex-TEG (%) (100% FBS, Day 14): 0.08% and 0.10%
- Cumulative Dex-TEG-Dex (%) (100% FBS, Day 14): 0.39% and 0.49% and 0.68%
- Cumulative Dex Release (Fig 5d coating, 4 ml PBS, Day 3, samples and avg): 5791.09 ng and 5024.11 ng
- Cumulative Dex Release (Fig 5d coating, 4 ml PBS, Day 3, samples and avg, mean): 5535.43 ng
- Cumulative Dex Release (Fig 5d coating, 4 ml PBS, Day 7, samples and avg): 17637.28 ng and 18646.47 ng and 15578.55 ng
- Cumulative Dex Release (Fig 5d coating, 4 ml PBS, Day 7, samples and avg, mean): 17287.43 ng
- Cumulative Dex Release (Fig 5d coating, 4 ml PBS, Day 10, samples and avg): 20320.09 ng and 21014.00 ng and 17829.42 ng
- Cumulative Dex Release (Fig 5d coating, 4 ml PBS, Day 10, samples and avg, mean): 19721.17 ng
- Cumulative Dex Release (Fig 5d coating, 4 ml PBS, Day 14, samples and avg): 28452.49 ng and 28863.83 ng and 25840.72 ng
- Cumulative Dex Release (Fig 5d coating, 4 ml PBS, Day 14, samples and avg, mean): 27719.01 ng
- Cumulative Dex Release (%) (Fig 5d coating, PBS, Day 3, avg): 0.71%
- Cumulative Dex Release (%) (Fig 5d coating, PBS, Day 7, avg): 2.21%
- Cumulative Dex Release (%) (Fig 5d coating, PBS, Day 10, avg): 2.52%
- Cumulative Dex Release (%) (Fig 5d coating, PBS, Day 14, avg): 3.55%
